Earlier results, collected in patent US6462083B1, “Suppository base” (priority 2001, dated 2002).

Tested on: blood flow to the site of administration
Conditions: laser Doppler imaging; no species, dose or data printed

## CCCCCCCC/C=C\CCCCCCCCCCCC(=O)O [Erucic acid, (Z)-13-Docosenoic acid]
  blood flow to the site of administration: enhance blood flow to the site of administration
